Measurements reported in article PMC2788921 (Biochemistry, 2009).

How the values were obtained:
[1] = molecular target: benzoylformate decarboxylase (BFDC) (Pseudomonas putida, UniProt P20906); assay: stopped-flow PDA transient kinetics; format: binding
benzaldehyde lyase (BAL) = benzaldehyde lyase (BAL) (Pseudomonas fluorescens, UniProt P51853); assay: CD titration of purified BAL; format: binding
benzaldehyde lyase (BAL), sequence (P51853 whole entry): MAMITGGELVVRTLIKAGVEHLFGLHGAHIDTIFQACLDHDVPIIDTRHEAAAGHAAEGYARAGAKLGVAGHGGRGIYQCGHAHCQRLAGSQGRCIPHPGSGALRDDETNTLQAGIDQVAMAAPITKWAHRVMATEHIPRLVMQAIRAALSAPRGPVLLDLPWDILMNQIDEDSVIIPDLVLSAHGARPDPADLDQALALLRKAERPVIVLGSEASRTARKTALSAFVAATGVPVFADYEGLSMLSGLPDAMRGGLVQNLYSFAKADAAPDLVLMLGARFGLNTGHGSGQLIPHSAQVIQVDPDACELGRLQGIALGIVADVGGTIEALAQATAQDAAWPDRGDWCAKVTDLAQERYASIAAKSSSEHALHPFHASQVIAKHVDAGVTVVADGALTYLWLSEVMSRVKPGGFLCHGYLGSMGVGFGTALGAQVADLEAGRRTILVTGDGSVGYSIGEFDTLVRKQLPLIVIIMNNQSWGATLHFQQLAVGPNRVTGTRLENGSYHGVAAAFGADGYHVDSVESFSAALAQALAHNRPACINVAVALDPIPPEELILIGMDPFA

benzoylformate decarboxylase (BFDC), sequence (P20906 whole entry): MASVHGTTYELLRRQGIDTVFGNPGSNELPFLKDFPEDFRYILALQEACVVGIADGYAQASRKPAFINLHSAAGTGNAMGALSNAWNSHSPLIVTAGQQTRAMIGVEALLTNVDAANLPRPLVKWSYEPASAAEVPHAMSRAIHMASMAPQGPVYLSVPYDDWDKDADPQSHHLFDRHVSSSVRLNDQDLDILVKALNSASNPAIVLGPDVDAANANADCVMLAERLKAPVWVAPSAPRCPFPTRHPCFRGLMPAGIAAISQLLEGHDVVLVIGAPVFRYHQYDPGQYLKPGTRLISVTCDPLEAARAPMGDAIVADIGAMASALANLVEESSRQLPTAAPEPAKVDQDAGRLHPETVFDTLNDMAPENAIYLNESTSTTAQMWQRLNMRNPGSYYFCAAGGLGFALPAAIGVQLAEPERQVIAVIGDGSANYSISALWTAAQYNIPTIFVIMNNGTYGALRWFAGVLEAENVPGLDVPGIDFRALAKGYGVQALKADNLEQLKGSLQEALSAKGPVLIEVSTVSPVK

Question: For O=C(O)C(=O)/C=C/c1cccnc1 [3-PKB, (E)-2-oxo-4-(pyridin-3-yl)but-3-enoic acid], which Kd [1] is on record?
Answer: 340 µM

Question: How did the Kd (benzaldehyde lyase (BAL)) turn out when O=C/C=C/c1cccnc1 [PAA, (E)-3-(pyridin-3-yl)acrylaldehyde] was run?
Answer: 21.4 ± 1.98 µM
